For orientation: NOAEL means the highest dose or exposure tested at which no adverse effect was seen. As a reminder, the LOAEL is the lowest tested level that showed an adverse finding. Usually LD50 stands for the dose at which mortality reaches 50%.

Each structure is given as a SMILES string. Values joined by “and” are separate entries in the source; they are usually repeats but may differ in a detail not shown here. Equal values may be shown once.

Here are results for ten compounds from EPA's ToxValDB 9.5.

For data set [1], the system named is Oryctolagus sp. As to conditions: developmental; oral; gavage; Prominent liver lobulation.
In data set [2] the test system is Rattus norvegicus. Conditions: oral; for NOAEL: drinking water.
Data set [3] deals with Mus musculus. As to conditions: subchronic; inhalation; M/F; mortality.
The subject of data set [4] is Mus musculus. Conditions: chronic, duration: 92 days, inhalation, intermittent.
Data set [5] relates to Mus musculus. The data set can be described thus: FEL; higher = less toxic. As to conditions: subchronic; inhalation; M/F; mortality.
In data set [6] the test system is Cavia porcellus. Conditions: subchronic; duration: 90 days; oral; M/F; Guinea Pig; ototoxicity.
The next data set relates to Bacteria. Conditions: In vitro / microbiological; Growth inhibition.
The next data set has as its system Chalcophaps sp. As to conditions: oral.
For data set [7], the system named is Mus musculus. Conditions: repeat dose other; oral.
The test system of data set [8] is Cavia porcellus. As to conditions: chronic; oral; M/F; Guinea Pig; increased relative liver weight.
In data set [9] the test system is Mus musculus. Conditions: oral.
The test system of data set [10] is Rattus norvegicus. As to conditions: M/F; for LOAEL: developmental, Wistar.
Data set [11] relates to Rattus norvegicus. Conditions: Hershberger, duration: 10 days, oral, gavage, active + Antiandrogenic + anti-androgenic + significant increase in liver wt at 100 and greater / significant decrease in AST and increase ….
Data set [12] concerns Rattus norvegicus. As to conditions: developmental, oral, gavage, M, Wistar, generation: F1.
The subject of the next data set is Canidae. Conditions: short-term; duration: 22 days; oral; Beagle.
The test system of a further data set is Monkey. Conditions: chronic; duration: 363 days; oral; diet.
The subject of data set [13] is Mus musculus. Conditions: oral, gavage, Swiss.
Data set [14] relates to Rattus norvegicus. As to conditions: oral; for LD50: acute.
The test system of data set [15] is Rattus norvegicus. As to conditions: subchronic; duration: 90 days; oral; drinking water; Nerve: Damage.
Data set [16] concerns Mus musculus. Conditions: chronic; duration: 2 years; oral; drinking water; M/F; B6C3F1; Hardarian gland & lung tumors (males).
Data set [17] relates to Rattus norvegicus. The data set can be described thus: LD5; higher = less toxic. Conditions: developmental, oral, drinking water, M/F, Wistar.
Data set [18] deals with Mus musculus. As to conditions: developmental; oral; diet; M/F; Swiss-Webster; Nervous.
The next data set deals with Dog, Mouse, Rat. As to conditions: oral; Effects on the reproductive system and developing nervous system.
Data set [19] relates to Cavia porcellus. Conditions: uterotrophic; duration: 12 days; injection; subcutaneous; Guinea Pig; Active.
Data set [20] deals with Oryctolagus sp. Put plainly: LD40; higher = less toxic. As to conditions: acute; dermal; occlusive.
[21] abbreviates: reproduction developmental, duration: 10 weeks, drinking water, F, Fischer 344.
Setting [22] is: reproduction developmental, duration: 10 weeks, drinking water, M, Fischer 344.
Where [23] appears, read: reproduction developmental, duration: 80 days, drinking water, Long-Evans.
The mark [24] stands for this setting: short-term, duration: 28 days, gavage, Sprague-Dawley.

On to `Cc1cc(C)[nH]c(=O)n1.O=C(Nc1ccc([N+](=O)[O-])cc1)Nc1ccc([N+](=O)[O-])cc1` [1,3-Bis(4-nitrophenyl)urea 4,6-dimethylpyrimidin-2-ol (1:1)], for which the NOAEL in the data set on Oryctolagus sp. [1] is 60 mg/kg-day. For the same compound, the NOEL in the data set with Rattus norvegicus [2] (reproduction developmental, gavage, M/F, CD/CRJ, Maternal mortality & decreased bodyweight gain & feed consumption / decreased bodyweight & various malformations in offspring) stood at 200 mg/kg-day.

Consider `CC#N` [Acetonitrile], for which the no-observed-adverse-effect level (NOAEL) in the data set with Mus musculus [3] was 336 mg/m3; with Mus musculus [4] (Blood: Decreased hematocrit + Erythrocytes: Decreased cell count + Liver: Hepatic lesions) it was 168 mg/m3; with Mus musculus [4] (Liver: Increased relative weight) it was 168 mg/m3. This compound displayed an FEL in the data set with Mus musculus [5] of 672 mg/m3.

For `NC[C@@H]1O[C@H](O[C@H]2[C@@H](O)[C@H](O[C@@H]3[C@@H](O)[C@H](N)C[C@H](N)[C@H]3O[C@H]3O[C@H](CN)[C@@H](O)[C@H](O)[C@H]3N)O[C@@H]2CO)[C@H](N)[C@@H](O)[C@@H]1O` [Neomycin], in the data set with Cavia porcellus [6], the NOEL is 6 mg/kg-day.

In the case of `CN[C@@H]1[C@@H](O[C@H]2O[C@H](CO)[C@@H](N)[C@H](O)[C@H]2O)O[C@H]2C[C@@H](N)[C@@H](O[C@H]3[C@H](O)[C@@H](O)[C@H](N)C[C@@H]3N)O[C@@H]2[C@@H]1O` [Apramycin], the NOAEC with Bacteria amounted to 8.3 µg/mL.

`CCCCC(CC)COC(=O)c1ccccc1C(=O)OCC(CC)CCCC` (configuration not stated) [Di(2-ethylhexyl) phthalate]: the NOAEL in the data set with Chalcophaps sp. came to 1.1 mg/kg-day; in the data set on Mus musculus [7] it was 18.3 mg/kg-day. Moreover, the LOAEL with Mus musculus [7] stood at 183 mg/kg-day; in the data set with Cavia porcellus [8] it was 19 mg/kg-day; in the data set with Mus musculus [9] (developmental, duration: 20 days, gavage, F, CD1, developmental), 0.04 mg/kg-day; in the data set with Rattus norvegicus [10] (duration: 9 weeks, inhalation, whole body), 4.79 mg/m3; in the data set on Rattus norvegicus [10] (duration: 12 days, oral, gavage) it was 1 mg/kg-day. Besides, the LOEL is 300 mg/kg-day and 100 mg/kg-day in the data set on Rattus norvegicus [11] (Sprague-Dawley); 300 mg/kg-day and 200 mg/kg-day in the data set with Rattus norvegicus [11] (Wistar); 405 mg/kg-day with Rattus norvegicus [12] (F1: AGD (mm)). Also, the NOEL was 100 mg/kg-day in the data set on Rattus norvegicus [11] (Wistar), 135 mg/kg-day in the data set on Rattus norvegicus [12] (F1: AGD (mm)) and 405 mg/kg-day in the data set with Rattus norvegicus [12] (F1: Hypospadias (% litters affected) + F1: Hypospadias (litters affected incidence)).

`C=CC(N)=O` [Acrylamide]: the NOAEL in the data set with Canidae is 5 mg/kg-day; with Monkey, ≥ 1 mg/kg-day and ≤ 3 mg/kg-day; with Mus musculus [13] (developmental), 15 mg/kg-day; with Mus musculus [13] (reproduction developmental, F), 2.5 mg/kg-day; in the data set on Rattus norvegicus [14] (chronic, duration: 93 days, drinking water, Fischer 344) it was 0.2 mg/kg-day; in the data set on Rattus norvegicus [14] (chronic, drinking water, Fischer 344), 0.1 mg/kg-day. The NOAEL with Rattus norvegicus [14] (developmental, gavage, Sprague-Dawley / Mice: Swiss) came to 15 mg/kg-day; in the data set with Rattus norvegicus [14] (setting [21]), 0.5 mg/kg-day; with Rattus norvegicus [14] (reproduction developmental, duration: 10 weeks, drinking water, Long-Evans, generation: F0), 5 mg/kg-day; with Rattus norvegicus [14] (setting [22]), 0.5 mg/kg-day; in the data set with Rattus norvegicus [14] (setting [23]), 1.5 mg/kg-day; in the data set on Rattus norvegicus [14] (reproduction developmental, drinking water, Fischer 344, generation: F0), 0.5 mg/kg-day. The no observed adverse effect level (NOAEL) in the data set with Rattus norvegicus [14] (reproduction developmental, drinking water, Fischer 344, generation: F1) was 2 mg/kg-day; in the data set on Rattus norvegicus [14] (reproduction developmental, drinking water, Fischer 344, generation: F2), 2 mg/kg-day; in the data set on Rattus norvegicus [14] (reproduction developmental, gavage, F, Sprague-Dawley / Mice: Swiss), 2.5 mg/kg-day; in the data set with Rattus norvegicus [14] (short-term, duration: 28 days, drinking water, Fischer 344) it was ≥ 4.1 mg/kg-day and ≤ 4.3 mg/kg-day; with Rattus norvegicus [14] (subchronic, duration: 13 weeks, gavage, Fischer 344) it was 5 mg/kg-day; with Rattus norvegicus [10] (subchronic, duration: 90 days, oral, drinking water, Fischer 344, neurological), 0.2 mg/kg-day. For the same compound, in the data set on Rattus norvegicus [2] (chronic, duration: 2 years, M/F, Fischer 344, neurotoxicity), the NOAEL was 0.67 mg/kg-day and 1.88 mg/kg-day. The values for the lowest observed adverse effect level (LOAEL) with Rattus norvegicus [14] (setting [21]), in the data set with Rattus norvegicus [14] (setting [22]) and in the data set with Rattus norvegicus [14] (setting [23]) were 2 mg/kg-day, 2 mg/kg-day and 2.8 mg/kg-day, respectively. In the data set on Rattus norvegicus [15], the NOEL turned out to be 0.2 mg/kg-day. For the same compound, the LOEL in the data set on Mus musculus [16] worked out at 1.05 mg/kg-day.

For `CCC(C)O` (configuration not stated) [2-Butanol], the LD5 with Rattus norvegicus [17] was 657 mg/kg-day.

As to `[Al]` [Aluminum], the “LOAEL (mg Al/kg-day)” value with Mus musculus [18] was found to be 100. The compound further showed an LOAEL in the data set with Mus musculus [9] (chronic, duration: 24 months, diet, M/F, Swiss-Webster, neurological) of 100 mg/kg-day. In addition, the no-observed-adverse-effect level (NOAEL) was 26 mg/kg-day in the data set with Mus musculus [9] (developmental, duration: 364 days, diet, M/F, Swiss-Webster, neurological); 30 mg/kg-day in the data set with Rattus norvegicus [2] (developmental, Renal damage (hydronephrosis, urethral dilatation, obstruction and/or presence of calculi) and reduced grip strength, but not cognitive …). The LOEL in the data set on Dog, Mouse, Rat is 50 mg/kg-day and 75 mg/kg-day.

Consider `CC/C(=C(\c1ccc(O)cc1)c1ccc(OCCN(C)C)cc1)c1ccccc1` [4-Hydroxytamoxifen], for which the LEL with Cavia porcellus [19] was 0.1 mg/day.

Regarding `N#Cc1cccnc1` [3-Pyridinecarbonitrile], in the data set on Rattus norvegicus [14] (gavage, Sprague-Dawley), the LD50 was 1460 mg/kg and 1480 mg/kg. Besides, the 50% lethal dose (LD50) in the data set on Rattus norvegicus [14] (gavage, Wistar) was 1100 mg/kg. Moreover, in the data set on Rattus norvegicus [14] (setting [24]), the lowest observed adverse effect level (LOAEL) was 30 mg/kg-day and the NOAEL came out at 5 mg/kg-day. Besides, in the data set on Oryctolagus sp. [20], the LD40 is ≥ 2000 mg/kg and ≤ 4000 mg/kg.
